Experimental data as given in ChEMBL document CHEMBL1148006, “Benzimidazo[1,2-c][1,2,3]thiadiazole-7-sulfonamides as inhibitors of carbonic anhydrase” (Bioorg Med Chem Lett, 2007).

What follows are compounds tested against Carbonic anhydrase 2 (Bos taurus, UniProt P00921) (assay: Binding affinity to bovine CA2 by typical isothermal titration calorimetry).
Chain of Carbonic anhydrase 2 (P00921 whole entry): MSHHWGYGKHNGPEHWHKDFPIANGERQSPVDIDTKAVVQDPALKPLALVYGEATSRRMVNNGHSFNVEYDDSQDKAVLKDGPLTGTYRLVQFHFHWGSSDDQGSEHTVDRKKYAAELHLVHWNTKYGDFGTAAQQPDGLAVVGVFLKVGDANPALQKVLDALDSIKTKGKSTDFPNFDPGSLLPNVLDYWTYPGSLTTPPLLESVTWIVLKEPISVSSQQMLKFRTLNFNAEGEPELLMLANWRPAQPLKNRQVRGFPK

Row | Compound | Kd [nM]
1 | NS(=O)(=O)c1ccc2nc3n(c2c1)N=S=C3N1CCOCC1 | 38
2 | NS(=O)(=O)c1ccc2nc3n(c2c1)N=S=C3Cl | 141
3 | CSC1=S=Nn2c1nc1ccc(S(N)(=O)=O)cc12 | 322
4 | CN1CCN(C2=S=Nn3c2nc2ccc(S(N)(=O)=O)cc23)CC1 | 391
5 | NS(=O)(=O)c1ccc2nc3n(c2c1)N=S=C3 | 286

The remaining compounds from weak to strong by Kd, led by results:

Row | Kd [nM] | Compound
6 | 500 | CS(=O)(=O)C1=S=Nn2c1nc1ccc(S(N)(=O)=O)cc12
7 | 285 | NS(=O)(=O)c1ccc2nc3n(c2c1)N=S=C3Sc1ccccc1
